Reference: patent US20030073721A1, “Peptide beta-strand mimics based on 1,2-dihydro-3(6H)-pyridinone” (THE REGENTS OF THE UNIVERSITY OF CALIFORNIA, a California …, priority 2001, published 2003)
Like-named read-outs stand apart in the source and are kept apart here.

Target: homodimer
Test: Dimer dissociation constant from concentration dependence of NH chemical shifts (NMR)
Type: binding
Source text: Dimerization of the Ach-containing peptide analogs of this invention can be detected by observing changes in NH chemical shifts as a function of concentration. For a dimerization process with dissociation constant Kd and NMR chemical shifts δmono and δdi, respectively, the observed chemical shift, δobs, as a function of concentration c is expressed by the following equation: [formula]
Experimental data were obtained for Ac-Phe-Ach-Leu-Ach-Ile, N-methyl amide and for its corresponding sarcosine-containing peptide corresponding to Ac-Phe-Sar-Leu-Sar-Ile, N-methyl amide, as well as for various other Ach-containing peptide analogs of this invention terminating in carboxylic acid groups rather than N-methyl amide groups, all in CDCl3 or CD3OH/CDCl3 at 25° C.
To distinguish between the two species, the dissociation constants of dimers of each species were determined.

**Q.** “Ac-Leu-Ach-Val-Ach-Leu-Ach-Phe-OH [Ach-containing peptide analog (heptamer) terminating in carboxylic acid group]” was tested. Which Kd (15% CD3OH/CDCl3, 25° C., read-out: Dissociation constant Kd (dimer)) did it give?
**A.** Its Kd is 1500 µM.

**Q.** How did the Kd (5% CD3OH/CDCl3, concentration range 0.6-42 mM, read-out: Dimer dissociation constant) turn out when “Phe-Gly-Ser-D-Pro-Ala-Leu-Ach-Ile [hybrid 1]” was run?
**A.** Its Kd is 25000 µM.

**Q.** What does the source list for “Ac-Phe-Ach-Leu-Ach-Val-OH [Ach-containing peptide analog terminating in carboxylic acid group]”?
**A.** Kd (2.5% CD3OH/CDCl3, 25° C., read-out: Dissociation constant Kd (dimer)): 90 µM; Kd (5% CD3OH/CDCl3, 25° C., read-out: Dissociation constant Kd (dimer)): 8000 µM; Kd (pure chloroform, extrapolated from Kd vs CD3OH concentration, read-out: Dissociation constant in pure chloroform, extrapolation of the line in FIG. 1): ~0.13 µM

**Q.** For `CCC(C)C(NC1=CC(=O)CN(C(=O)C(CC(C)C)NC2=CC(=O)CN(C(=O)C(Cc3ccccc3)NC(C)=O)C2)C1)C(=O)NC` (stereo not drawn) [Ac-Phe-Ach-Leu-Ach-Ile-NHMe, Ac-Phe-Ach-Leu-Ach-Ile, N-Methyl Amide], which Kd (0% CD3OH/CDCl3 (pure CDCl3), 25° C., read-out: Dissociation constant Kd (dimer)) is on record?
**A.** The Kd was 400 µM.
